According to patent US20080039328A1, “Post Harvest Control of Genetically Modified Crop Growth Employing D-Amino Acid Compounds” (BASF PLANT SCIENCE GMBH, priority 2004, published 2008):
Entries after “also recorded” stand apart in the source; their conditions may differ.

Columns and labels:
[1] = biological target: T1, DAAO (Rhodotorula toruloides, UniProt P80324); test: DAAO incubation of cell-free plant extracts, keto acid production by HPLC; assay type: biochemical, Rhodotorula gracilis; settings: cell-free extracts from dao1 transgenic line 10:7
T1 construct: expressed in transfected cells; host or cells: Arabidopsis thaliana (Col-0), dao1 transgenic line 10:7, transformed with pPCV702:dao1 (CaMV 35S); crude soluble protein extract
T1 sequence (P80324 25-368): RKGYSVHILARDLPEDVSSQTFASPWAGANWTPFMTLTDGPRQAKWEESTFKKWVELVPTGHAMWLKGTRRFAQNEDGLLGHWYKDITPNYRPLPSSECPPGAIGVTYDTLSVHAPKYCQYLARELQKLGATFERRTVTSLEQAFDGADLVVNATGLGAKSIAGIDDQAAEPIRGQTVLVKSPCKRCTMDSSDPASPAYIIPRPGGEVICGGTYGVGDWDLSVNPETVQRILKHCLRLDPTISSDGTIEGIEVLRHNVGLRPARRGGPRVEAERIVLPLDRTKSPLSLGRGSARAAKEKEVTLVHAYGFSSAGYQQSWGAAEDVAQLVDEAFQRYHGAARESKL
Description: Soluble proteins were extracted by shaking 0.1 g samples of plant material that had been finely pulverized in a 1.5 ml Eppendorf tube in 1 ml of 0.1 M potassium phosphate buffer, pH 8. DAAO activity was then assayed as follows. Reaction mixtures were prepared containing 2,120 μl of 0.1 M potassium phosphate buffer, pH 8, 80 μl of crude protein extract and 100 μl of 0.3 M D-alanine. The samples were incubated for 2 h at 30° C. The enzyme activity was then assessed, by measuring the increase in absorbance at 220 nm (E=1.090 M^−1 cm^−1) associated with the conversion of D-alanine to pyruvate, after transferring the test tubes to boiling water for […] to stop the reaction. In control reactions, D-alanine was added immediately before boiling. One unit of DAAO activity is defined as the turnover of one micromole of substrate per minute, and activity was expressed per gram plant biomass (fresh weight). The breakdown of D-isoleucine and D-valine in DAAO incubations, and the associated production of 3-methyl-2-oxopentanoate and 3-methyl-2-oxobutanoate, were analyzed by high-performance liquid chromatography. In other respects the reactions were carried out as described above.
Presumably endogenous transaminase may be specific for the L-enantiomer, so the corresponding D-enantiomer is not metabolized in wildtype plants, but only in plants expressing DAAO. […]

[2] = test system: dao1 transgenic A. thaliana; test: Growth of dao1 (DAAO) transgenic A. thaliana on medium with D-amino acids; assay type: in vivo, Arabidopsis thaliana
Description: (§1) FIG. 4 D-amino acid dose responses of dao1 transgenic and wild-type A. thaliana. (a-d) Growth of dao1 transgenic line 3:7 (white), 10:7 (light gray), 13:4 (gray) and wild-type (black) plants, in fresh weight per plant, on media containing various concentrations of D-serine, D-alanine, D-isoleucine and D-valine in half-strength MS with 0.5% (wt/vol) sucrose and 0.8% (wt/vol) agar. Different concentration ranges were used for different ID-amino acids. The plants were grown for 10 d after germination under 16 h photoperiods at 24° C.; n=10±s.e.m., except for plants grown on D-isoleucine, where smaller Petri dishes were used, (n=6±s.e.m.).
(§2) T1 seeds of transgenic Arabidopsis plants were surface-sterilized and sown in Petri plates that were sealed with gas-permeable tape. The growth medium was half strength MS19 with 0.5% (wt/vol) sucrose and 0.8% (wt/vol) agar, plus 3 mM D-alanine, 3 mM D-serine or 50 μg/ml kanamycin as the selective agent. Plants were grown for 5 d after germination with a 16 h photoperiod at 24° C. To evaluate the selection efficiency on different substrates, 2,074, 1,914 and 1,810 T1 seeds were sown on D-alanine-, D-serine- and kanamycin-selective plates, respectively, and the number of surviving seedlings was counted (44, 32 and 43, respectively).
The T-DNA contained both 35S:dao1 and pNos:nptII, allowing D-amino acid and kanamycin selection to be compared in the same lot of seeds.
Therefore, plants containing the construct were tested as described above on two sets of media, one containing D-isoleucine and the other containing D-valine at various concentrations, to assess whether DAAO could also be used as a counter-selection marker. Unambiguous counter-selection selection was achieved when seeds were sown on either D-isoleucine or D-valine at concentrations greater than 10 mM (FIG. 4 c,d).

[3] = test system: non-transgenic Arabidopsis plants; test: Greenhouse spraying of mixed plantlets on soil with D-isoleucine; assay type: in vivo; settings: sprayed, 10 mM, 20 mM, 30 mM in isotonic salt solution, pH 7.0, soil, green-house
Description: (§3) Transgenic Arabidopsis, Brassica napus, and Zea mays plants are generated as described above using either construct I (SEQ ID NO: 15) or construct II (SEQ ID NO: 16) for Agrobacterium mediated transformation. Transgenic plants are selected using the negative selection marker property of the D-amino acid oxidase on medium comprising 0.3, 3 or 30 mM D-alanine (or D-serine). Resulting transgenic plants are selfed to obtain homozygous plants. Homozygous plants are propagated over 2 to 3 generations to ensure stability of the transgenic insertion.
(§4) Seeds of transgenic plants are mixed with seeds of the corresponding non-transgenic line (used for transformation). Various proportions of transgenic versus non-transgenic seeds are used (1:1, 1:10, 1:100).
(§5) Seeds are sown on standard soil under green-house conditions. After germination, developing plantlets were sprayed at various developmental steps with preparations of D-isoleucine (final concentration of 10 mM, 20 mM, 30 mM, respectively in isotonic salt solution, pH 7.0).

[4] = test system: non-transgenic Brassica napus plants; test: as above; assay type: in vivo; settings: sprayed, 10 mM, 20 mM, 30 mM in isotonic salt solution, pH 7.0, soil, green-house
Description: as §3, §4, §5

[5] = test system: Transgenic Brassica napus plants (DAAO from Rhodotorula gracilis); test: as above; assay type: in vivo; settings: sprayed, 10 mM, 20 mM, 30 mM in isotonic salt solution, pH 7.0, soil, green-house
Description: as §3, §4, §5

[6] = test system: Transgenic Arabidopsis plants (DAAO from Rhodotorula gracilis); test: as above; assay type: in vivo; settings: sprayed, 10 mM, 20 mM, 30 mM in isotonic salt solution, pH 7.0, soil, green-house
Description: as §3, §4, §5

[7] = test system: non-transgenic Zea mays plants; test: as above; assay type: in vivo; settings: sprayed, 10 mM, 20 mM, 30 mM in isotonic salt solution, pH 7.0, soil, green-house
Description: as §3, §4, §5

[8] = test system: Transgenic Zea mays plants (DAAO from Rhodotorula gracilis); test: as above; assay type: in vivo; settings: sprayed, 10 mM, 20 mM, 30 mM in isotonic salt solution, pH 7.0, soil, green-house
Description: as §3, §4, §5

[9] = test system: wild-type Arabidopsis thaliana; test: Growth of wild-type A. thaliana plantlets on medium with D-amino acids; assay type: in vivo
Description: Wild type Arabidopsis thaliana plantlets were grown on half-concentrated Murashige-Skoog medium (0.5% (wt/vol) sucrose, 0.8% (wt/vol) agar) supplemented with the indicated D-amino acid at either 3 mM (Panel A) or 30 mM (Panel B).
as §1, §2

[10] = various concentrations in half-strength MS, 10 d after germination

`CC[C@@H](C)[C@@H](N)C(=O)O` [D-isoleucine] was tested, and the “Increase in production of 3-methyl-2-oxopentanoate compared to extracts of wild-type plants” value [1] was 15 fold, the “Response of thirteen individual lines expressing DAAO” value ([2]; in vivo) was “effectively killed” and the “Effect on transgenic plantlets comprising DAAO gene (FIG. 2)” value ([2]; treated with 30 mM) was “toxic effect”. For the same compound, the “Growth of plants expressing DAAO (FIG. 4)” value [2, 10] was “strong negative influence on the growth; also recorded: inhibit growth”, the “Effect of the treatment on non-transgenic plants” value (from here on “Effect … on non-transgenic plants”) [3] was “unaffected” and the “Effect … on non-transgenic plants” value [4] was “unaffected”. The “Transgenic plants able to reach maturity” value [5] was “None”, the “Transgenic plants able to reach maturity” value [6] was “None” and the “Effect … on non-transgenic plants” value [7] was “unaffected”. For the same compound, the “Transgenic plants able to reach maturity” value [8] was “None”, the “Effect on plant growth (FIG. 3)” value ([9]; 3 mM or 30 mM in half-concentrated Murashige-Skoog medium, wild type plantlets) was “no significant effects” and the “Response of wild-type plants (compared with DAAO lines)” value ([9]; in vivo) was “grew well, with no sign of toxicity”. The “Effect on wild-type plantlets (FIG. 2)” value ([9]; treated with 30 mM) was “no severe damage” and the “Growth of wild-type plants (FIG. 4)” value [9, 10] was “not toxic; also recorded: minor effects; also recorded: not the wild-type plants”.
